Measurements as given in the NIST ThermoML archive (doi:10.1016/j.fluid.2014.12.040).

How the values were obtained:
[1] = for surface tension liquid-gas: Wilhelmy-plate method; for mass density: 100 kPa, Liquid, Vibrating tube method
[2] = xn = mol fraction of the nth substance listed; settings: for surface tension liquid-gas: Wilhelmy-plate method; for mass density: 100 kPa, Liquid, Vibrating tube method

CC(O)CO (centres undefined) [1,2-propanediol]
[1]
Settings | mass density [kg/m3] | surface tension liquid-gas [mN/m]
298.15 K | 1032.69 | 35.74
308.15 K | 1025.21 | 35.35
318.15 K | 1017.51 | 34.96
328.15 K | 1009.78 | 34.6

CC(C)O [propan-2-ol]
[1]
Settings | mass density [kg/m3] | surface tension liquid-gas [mN/m]
298.15 K | 781.18 | 20.85
308.15 K | 772.32 | 20.1
318.15 K | 763.61 | 19.4
328.15 K | 754.84 | 18.75

CC(C)O [propan-2-ol] + CC(O)CO
[2], x1 = 1
Settings | mass density [kg/m3] | surface tension liquid-gas [mN/m]
298.15 K | 781.18 | 20.85
308.15 K | 772.32 | 20.1
318.15 K | 763.61 | 19.4
328.15 K | 754.84 | 18.75

O [water]
[1]
Settings | mass density [kg/m3] | surface tension liquid-gas [mN/m]
298.15 K | – | 72.03
308.15 K | – | 70.3
318.15 K | – | 68.7
328.15 K | 985.66 | 66.9

O [water] + CC(O)CO
[2], x2 = 0
Settings | mass density [kg/m3] | surface tension liquid-gas [mN/m]
298.15 K | – | 72.03
308.15 K | – | 70.3
318.15 K | – | 68.7
328.15 K | 985.66 | 66.9
